Each structure is given as a SMILES string. In brackets after ≈: the same amount, converted by molar mass. Like-named read-outs stand apart in the source and are kept apart here.

Data set [1] has as its system human liver cancer cell HepG2. In words: In vitro activity assay, growth of HepG2 (thymidine incorporation). The class given is cell-based. The conditions noted are these: 48 h. From the text: (§1) The anti-tumor activity and toxicity of the compounds according to the present invention can be assayed through standard operational procedures of pharmacological experiment. The experiments carried out herein can test the inhibitory effect of the compounds according to the present invention on the growth of human liver cancer cell HepG2, lung cancer cell NCI460, prostate cancer cell DU145, prostate cancer cell PC3, and human breast cancer cell MDA-MB-435. The operational procedure used is briefly described below by taking the inhibitory activity assay against human liver cancer cell HepG2 as an example.
Human liver cancer cell HepG2 grew in the follow medium:
Preparation of the growth medium: BRL minimum essential medium with Earle Salts (500 mL), with the addition of the following agents:
(§2) The operational procedure for the assay is as follows:
(§3) 1. Cells after being trypsinized were inoculated in 96-well plates at a concentration of 10^4 cells/well, and allowed to grow in a medium with a final volume of 200 μL. The 96-well plates after inoculation are allowed to stand for 24 hours at 37° C., in order to allow the cells to adhere to the surface of the wells.
(§4) 2. The medium was removed by carefully pipetting without disturbing the cell monolayer. 200 μL Fresh medium was added into each well. It is arranged to make it possible to collect samples from enough wells to run the experiments in triplicate.
(§5) 3. The compounds to be tested according to the present invention were dissolved into 10 μL phosphate buffered solution (PBS) and incubated for 48 h at 37° C.
(§6) 4. In the last 6 h of incubation, cells in each well of the 96-well plates were labeled by 1 microcurie T thymidine (New England Nuclear thymidine), by adding 10 μL PBS containing 1 microcurie T thymidine (which was added into the PBS on the day of collecting the samples for test). The 96-well plates were then returned to the incubator and incubated for the last 6 h.
(§7) 5. Without disturbing the cell monolayer, the radioactive medium was removed by pipetting. Then 50 μL of BRL 10×trypsin was added to each well, followed by incubation at 37° C. for 10 minutes or until the cell monolayer was detached from the bottom (or the wall) of each well. Samples were collected on glass-fiber diskettes using a Skatron 96-well cell harvester. Cells depositing on the glass-fiber diskettes were counted in a Wallac Betaplate counter.
For orientation: Uptake of a labelled nucleoside into DNA is a usual measure of proliferation.

Data set [2] can be described thus: Test for solubility in water. The class given is physicochemical. The conditions noted are these: for solubility: water, thermodynamic from solid. The protocol: The experiments herein can measure the dissolution profile in water of the compounds according to the present invention.
To a 25 ml volumetric flask, 25 mg everolimus was added, and diluted with acetonitrile to volume. The mixture was shaken till all the solid dissolved, obtaining 1 mg/mL everolimus solution in acetonitrile.
1 mg/mL everolimus solution in acetonitrile was added to a 10 ml volumetric flask, and was diluted with acetonitrile by 2 times, 10 times, 100 times and 1000 times, so as to obtain everolimus solutions in acetonitrile with a concentration of 0.5 mg/mL, 0.1 mg/mL, 0.01 mg/mL and 0.001 mg/mL, respectively.
Each of the three mixtures was shaken till the solid in the volumetric flask stopped to dissolve. Before analyzed by HPLC, 1 mL of each solution was filtrated via a 0.22 μm filter. The solubility of the compounds was calculated from the standard curve using the peak area of the main peak obtained.
Based on the same study method, comparisons of the solubility between sirolimus/temsirolimus and the compounds modified by glutathione are carried out, respectively.

Data set [3] deals with human breast cancer cell MDA-MB-435. In words: In vitro activity assay, growth of MDA-MB-435. The class given is cell-based. The settings on record: 48 h.
Excerpt: as §1, §2, §3, §4, §5, §6, §7

A further data set has as its system lung cancer cell NCI460. Description: In vitro activity assay, growth of NCI460. The class given is cell-based. The settings on record: NCI-460, 48 h.
Excerpt: as §1, §2, §3, §4, §5, §6, §7

Data set [4] relates to prostate cancer cell DU145. Description: In vitro activity assay, growth of DU145. The class given is cell-based. The conditions noted are these: Homo sapiens; DU-145; 48 h.
Excerpt: as §1, §2, §3, §4, §5, §6, §7

The next data set deals with prostate cancer cell PC3. In words: In vitro activity assay, growth of PC3. The settings on record: 48 h. The class given is cell-based.
Excerpt: as §1, §2, §3, §4, §5, §6, §7

The term IC50 denotes the point on the concentration scale where inhibition reaches its midpoint. For orientation: solubility means the dissolved amount per volume that the medium holds. As for `CO[C@H]1C[C@@H]2CC[C@@H](C)[C@@](O)(O2)C(=O)C(=O)N2CCCC[C@H]2C(=O)OC([C@H](C)C[C@@H]2CC[C@@H](OC(=O)C(C)(COC(=O)CSC[C@H](NC(=O)CC[C@H](N)C(=O)O)C(=O)NCC(=O)O)COC(=O)CSC[C@H](NC(=O)CC[C@H](N)C(=O)O)C(=O)NCC(=O)O)[C@H](OC)C2)CC(=O)[C@H](C)/C=C(\C)[C@@H](OC(=O)CSC[C@H](NC(=O)CC[C@H](N)C(=O)O)C(=O)NCC(=O)O)[C@@H](OC)C(=O)[C@H](C)C[C@@H](C)\C=C/C=C/C=C/1C` (stereo partly shown) [Compound I-7], the IC50 worked out at 76.703 ± 0.012 µM in data set [1]; 81.31 ± 0.008 µM in data set [3]; 131.26 ± 0.01 µM in the data set on lung cancer cell NCI460; 82.51 ± 0.015 µM in data set [4]; 60.492 ± 0.01 µM in the data set on prostate cancer cell PC3. Also, in data set [2], the “increase of solubility in water as compared with temsirolimus” value is on record as not below 830 times. This compound also displayed a solubility in data set [2] of 830 µg/mL (≈ 401 µM).

Consider `CO[C@H]1C[C@@H]2CC[C@@H](C)[C@@](O)(O2)C(=O)C(=O)N2CCCC[C@H]2C(=O)O[C@H]([C@H](C)C[C@@H]2CC[C@@H](O)[C@H](OC)C2)CC(=O)[C@H](C)/C=C(\C)[C@@H](O)[C@@H](OC)C(=O)[C@H](C)C[C@H](C)/C=C/C=C/C=C/1C` [Sirolimus, reference compound], for which the concentration for half-maximal inhibition (IC50) in data set [1] came out at 66.254 ± 0.007 µM; in data set [3], 68.57 ± 0.007 µM; in the data set with lung cancer cell NCI460, 101.36 ± 0.013 µM; in data set [4], 68.52 ± 0.009 µM; with prostate cancer cell PC3, 42.371 ± 0.009 µM. Moreover, in data set [2], the solubility was less than 1 µg/mL.

On to `CO[C@H]1C[C@@H]2CC[C@@H](C)[C@@](O)(O2)C(=O)C(=O)N2CCCC[C@H]2C(=O)OC([C@H](C)C[C@@H]2CC[C@@H](OC(=O)CSC[C@H](NC(=O)CC[C@H](N)C(=O)O)C(=O)NCC(=O)O)[C@H](OC)C2)CC(=O)[C@H](C)/C=C(\C)[C@@H](OC(=O)CSC[C@H](NC(=O)CC[C@H](N)C(=O)O)C(=O)NCC(=O)O)[C@@H](OC)C(=O)[C@H](C)C[C@@H](C)\C=C/C=C/C=C/1C` (stereo partly shown) [Compound I-4], for which the IC50 in data set [1] was 73.402 ± 0.007 µM; in data set [3] it was 73.283 ± 0.012 µM; with lung cancer cell NCI460 it was 122.8 ± 0.017 µM; in data set [4] it was 93.277 ± 0.011 µM; in the data set on prostate cancer cell PC3, 51.413 ± 0.005 µM. Further, the “increase of solubility in water as compared with sirolimus” value in data set [2] was not below 610 times. The same compound yielded a solubility in data set [2] of 610 µg/mL (≈ 379 µM).

With `CO[C@H]1C[C@@H]2CC[C@@H](C)[C@@](O)(O2)C(=O)C(=O)N2CCCC[C@H]2C(=O)O[C@H]([C@H](C)C[C@@H]2CC[C@@H](OC(=O)C(C)(CO)CO)[C@H](OC)C2)CC(=O)[C@H](C)/C=C(\C)[C@@H](O)[C@@H](OC)C(=O)[C@H](C)C[C@H](C)/C=C/C=C/C=C/1C` [Temsirolimus, reference compound], the concentration for half-maximal inhibition (IC50) was found to be 60.337 ± 0.01 µM in data set [1]; 77.31 ± 0.005 µM in data set [3]; 113.25 ± 0.011 µM in the data set on lung cancer cell NCI460; 65.361 ± 0.015 µM in data set [4]; 47.319 ± 0.005 µM in the data set on prostate cancer cell PC3. Besides, in data set [2] (pure water, Table 2, compounds I-5, I-6, I-7 converted to temsirolimus, read-out: Solubility in water), the solubility is approximately 1 µg/mL (≈ 0.971 µM).

In the case of `CO[C@H]1C[C@@H]2CC[C@@H](C)[C@@](O)(O2)C(=O)C(=O)N2CCCC[C@H]2C(=O)OC([C@H](C)C[C@@H]2CC[C@@H](OC(=O)C(C)(CO)COC(=O)CSC[C@H](NC(=O)CC[C@H](N)C(=O)O)C(=O)NCC(=O)O)[C@H](OC)C2)CC(=O)[C@H](C)/C=C(\C)[C@@H](O)[C@@H](OC)C(=O)[C@H](C)C[C@@H](C)\C=C/C=C/C=C/1C` (stereo partly shown) [Compound I-5], the concentration for half-maximal inhibition (IC50) was 50.213 ± 0.01 µM in data set [1]; 70.761 ± 0.009 µM in data set [3]; 80.53 ± 0.013 µM in the data set on lung cancer cell NCI460; 60.813 ± 0.011 µM in data set [4]; 38.396 ± 0.008 µM with prostate cancer cell PC3. In addition, the “increase of solubility in water as compared with temsirolimus” value in data set [2] was “at least 580 times”. In data set [2], this compound registered a solubility of 580 µg/mL (≈ 421 µM).

With `CO[C@H]1C[C@@H]2CC[C@@H](C)[C@@](O)(O2)C(=O)C(=O)N2CCCC[C@H]2C(=O)OC([C@H](C)C[C@@H]2CC[C@@H](OC(=O)CSC[C@H](NC(=O)CC[C@H](N)C(=O)O)C(=O)NCC(=O)O)[C@H](OC)C2)CC(=O)[C@H](C)/C=C(\C)[C@@H](O)[C@@H](OC)C(=O)[C@H](C)C[C@@H](C)\C=C/C=C/C=C/1C` (stereo partly shown) [Compound I-3], the IC50 is 35.188 ± 0.007 µM in data set [1]; 63.633 ± 0.015 µM in data set [3]; 82.328 ± 0.011 µM with lung cancer cell NCI460; 62.511 ± 0.01 µM in data set [4]; 31.396 ± 0.008 µM in the data set with prostate cancer cell PC3. The “increase of solubility in water as compared with sirolimus” value in data set [2] is “at least 470 times”. For the same compound, the concentration in solution in data set [2] (solubility) was 470 µg/mL (≈ 373 µM).

Source of the values: US10442835B2, “Water-soluble rapamycin derivatives” (Zhejiang Hisun Pharmaceutical Co., Ltd., priority 2016, dated 2019).
